Source: paper PMC12561670, “Isolation of Dual-Active Drugs with Anticancer and Antibacterial Activities That Target Both Tubulin and FtsZ” (Antibiotics, 2025)
Converted amounts (≈) assume the structure as drawn. Structures can show the parent of a compound that is named as a salt. Where two headings read alike, the source gives them in different places.

How the values were obtained:
B. subtilis (CICC 21164) = assay: MIC, broth microdilution; assay type: cell-based; conditions: Bacillus subtilis, 18 h, read-out: MIC B. subtilis (CICC 21164)
Description: MIC assays were carried out by employing the broth microdilution method in accordance with Clinical and Laboratory Standards Institute (CLSI) guidelines. E. coli BNCC337004, S. aureus BNCC336423, P. aeruginosa BNCC337099, and B. subtilis CICC 21164 were applied for the MIC detection. Mueller–Hinton broth (MHB) was used in bacterial culture, and log-phase bacteria were diluted into a 0.5 McFarland Standard suspension, which was then diluted 1000 times again. Subsequently, 100 μL of the obtained bacterial suspension was placed into each well of 96-well microtiter plates, along with 2-fold serial dilutions of compounds (512, 256, 128, 64, 32, 16, 8, 4, 2, 1, 0.5, 0 μM). The microtiter plates were incubated aerobically for 18 h at 37 °C. The MIC was defined as the lowest drug concentration at which no visible turbidity was observed. All experiments are conducted in three parallel.

bovine brain tubulin = assay: Inhibition of tubulin polymerization; assay type: biochemical; conditions: 10 μM bovine brain tubulin, 20 min; read-out: IC50 ± SD Tubulin (inhibition of tubulin polymerization)
Description: Compounds with a certain concentration were pre-incubated with 10 μM bovine brain tubulin in glutamate buffer at 30 °C, and then cooled to 0 °C. The absorbance of 350 nm was immediately measured at 30 °C, as soon as the addition of 0.4 mM GTP. The absorbance would be detected continuously for 20 min. The IC50 was defined as the compound concentration that inhibited tubulin polymerization by 50% during 20 min.

Cytotoxicity, CCK8 = assay type: cell-based; conditions: human
Description: The absorbance of 450 nm was measured in an ELISA reader (BioTek-Synergy 4, USA). Then, cell viability was calculated, and the corresponding images were drawn with GraphPad Prism 9.

P. aeruginosa (DSM 939) = assay: MIC, broth microdilution; assay type: cell-based; conditions: Pseudomonas aeruginosa, read-out: MIC P. aeruginosa (DSM 939)
S. aureus FtsZ = biological target: T1, S. aureus FtsZ (Staphylococcus aureus, UniProt P0A031); assay: FtsZ polymerization assay (A340); assay type: biochemical; conditions: 50 μM compound, 5 µM FtsZ, 4 mM GTP, vs DMSO
T1 construct: His tag; made in house; host or cells: E. coli BL21(DE3)
T1 sequence (P0A031 1-390): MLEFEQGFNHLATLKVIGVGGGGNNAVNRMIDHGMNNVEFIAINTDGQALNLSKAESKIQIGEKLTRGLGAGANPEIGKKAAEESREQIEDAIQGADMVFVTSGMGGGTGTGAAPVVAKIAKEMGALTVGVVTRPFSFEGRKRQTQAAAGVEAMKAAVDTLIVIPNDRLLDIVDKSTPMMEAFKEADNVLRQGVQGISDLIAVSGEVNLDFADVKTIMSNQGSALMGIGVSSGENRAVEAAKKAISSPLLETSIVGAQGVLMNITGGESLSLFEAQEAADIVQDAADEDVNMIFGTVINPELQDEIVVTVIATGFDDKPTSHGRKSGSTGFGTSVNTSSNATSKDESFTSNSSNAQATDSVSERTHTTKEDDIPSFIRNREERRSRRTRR
Description: The effect of compounds on S. aureus FtsZ polymerization was monitored by employing a microtiter plate-based spectrophotometric assay method, and the reactions were conducted in flat-bottomed 96-well microtiter plates. The degree of FtsZ polymerization was reflected by the corresponding changes in absorbance at 340 nm (A340). […] The polymerization reaction began immediately once 4 mM GTP was added, and then the polymerization was continuously monitored at 25 °C for 60 min by measuring A340 in BioTek-Synergy4 multifunctional enzyme-linked immunosorbent assay (ELISA) reader.

FtsZ = biological target: T2, FtsZ (Staphylococcus aureus, UniProt P0A031); assay: Sedimentation assay of FtsZ polymerization; assay type: biochemical; conditions: 50 μM compound, 5 μM FtsZ, 37 °C 30 min
T2 construct: His tag; made in house; host or cells: E. coli BL21(DE3)
T2 sequence (P0A031 1-390): T1 sequence (P0A031 1-390)
Description: Sedimentation assay was also conducted for the influence of compounds on FtsZ polymerization. FtsZ (5 μM) was polymerized in a buffer containing 25 mM Pipes buffer (pH 6.8) and 3 mM MgSO4 in the […] of DMSO or compounds (50 μM). After the addition of 4 mM GTP, the sample was instantly placed at 37 °C for 30 min. Then, the polymers were collected by centrifuging for 30 min at 25 °C. The protein concentration in the supernatant was determined using the Bradford quantification method, with bovine serum albumin (BSA) as the standard. The experiment was performed in triplicate, and the average absorbance is shown.

E. coli (ATCC 8739) = assay: MIC, broth microdilution; assay type: cell-based; conditions: Escherichia coli, read-out: MIC E. coli (ATCC 8739)
S. aureus (ATCC 6538) = assay: MIC, broth microdilution; assay type: cell-based; conditions: Staphylococcus aureus, read-out: MIC S. aureus (ATCC 6538)
E. coli = assay: In vivo antibacterial activity, mouse peritoneal infection; parameters: species or system CD-1 male mice
Excerpt: SPF grade CD-1 male mice weighing 30 ± 3 g were purchased from Shanghai Slake Experimental Animal Co., Ltd. (Shanghai, China). […] Immediately following this, the mice were intraperitoneally injected with the test compounds. Each experimental group consisted of five mice, with each compound being tested at two distinct concentration gradients (determined based on the minimum inhibitory concentration, MIC). A separate group received physiological saline as a negative control. The subsequent assessment focused on evaluating the therapeutic potential of these drugs against bacterial infections. On the first and third days post-administration, 2 mL of sterile physiological saline was injected into the peritoneal cavity of each mouse. After a gentle two-minute dilution under sterile conditions, the abdominal fluid was extracted for bacterial enumeration using the plate counting method. Furthermore, the clinical manifestations of each mouse group, encompassing mental status, appetite, and other relevant parameters, were meticulously observed over a seven-day period. On the seventh day, the mice were euthanized, and a thorough macroscopic examination was conducted to assess the pathological changes in various vital organs.

B. subtilis = assay: Phase-contrast microscopy, cell division inhibition; assay type: cell-based; conditions: 64 μM, 4 h
Description: Cell Division Inhibitory Screening Assay Cell division inhibitory activity of compounds was conducted as below. […] Afterwards, 1 mL of the sample was centrifuged at 15,000× g for 3 min at room temperature, and the bacterial pellets were washed with 1 mL of PBS before re-centrifugation. The final bacterial pellets obtained were resuspended in 5 mL PBS. 20 μL of bacterial suspension was transferred to slides for microscopy. Cell morphology was estimated by using the phase-contrast method of Olympus IX71 microscopy (Olympus Corporation, Tokyo, Japan) with 400× magnification.

S. aureus BNCC336423 = assay: Time–killing curve; assay type: cell-based; conditions: S. aureus BNCC336423, concentrations of 4× the MIC or greater
Description: S. aureus BNCC336423 was employed for the time–killing curve study. […] Meanwhile, DMSO with an equivalent volume was added to the vehicle control tube. The cultures were then subjected to shaking incubation at 37 °C. Subsequently, cultures were taken out at predetermined time intervals (0, 1, 2, 4, 6, 8, and 24 h), centrifuged at 16,000×g for 3 min, and diluted to an appropriate multiple. These diluted samples were then plated onto Tryptic Soy Agar (TSA) plates for enumeration. Following a 24 h incubation period at 37 °C, colonies on the TSA plates were counted for the CFU/mL, thereby providing insights into the time-dependent bactericidal activity of the tested compounds.

[1] = DSM939, broth microdilution, 18 h, 37 °C
[2] = ATCC8739, broth microdilution, 18 h, 37 °C
[3] = ATCC6538, broth microdilution, 18 h, 37 °C
[4] = 293T cells (renal epithelial cells), read-out: cell viability HT293 (293T)
[5] = LO2 cells (normal hepatic cells), read-out: cell viability LO2

Row | SMILES | MIC (B. subtilis (CICC 21164)) | IC50 (bovine brain tubulin) | viability at 12 h, 100 µM (Cytotoxicity, CCK8; read-out: cell viability HT293 (293T)) | viability at 12 h, 100 µM (Cytotoxicity, CCK8; read-out: cell viability LO2) | MIC (P. aeruginosa (DSM 939); DSM939, 18 h) | effect on FtsZ polymerization (A340) (S. aureus FtsZ) | effect on FtsZ sedimentation (polymerization amount) (FtsZ) | MIC (E. coli (ATCC 8739); ATCC8739, 18 h) | MIC (S. aureus (ATCC 6538); ATCC6538, 18 h) | MIC (B. subtilis (CICC 21164); broth microdilution, 37 °C) | bacterial count of peritoneal fluid (E. coli; mice i.p. E. coli, i.p. compound, days 1 and 3) | clinical presentation of infected mice (E. coli; seven-day observation) | MIC (P. aeruginosa (DSM 939); [1]) | cell morphology of B. subtilis (elongation) (B. subtilis) | MIC (E. coli (ATCC 8739); [2]) | MIC (S. aureus (ATCC 6538); [3]) | viability at 12 h, 100 µM (Cytotoxicity, CCK8; [4]) | viability at 12 h, 100 µM (Cytotoxicity, CCK8; [5]) | logs of kill in time–kill (S. aureus BNCC336423)
1 | C[C@]12CC[C@@H]3c4ccc(OC(=O)N(CCCl)CCCl)cc4CC[C@H]3[C@@H]1CC[C@@H]2O [Compound 56, Estramustine] | 64 µM (≈ 28.2 µg/mL) | 38.66 ± 0.28 µM | 98% | 99% | 32 µM (≈ 14.1 µg/mL) | minimal impact on the dynamics of FtsZ polymerization | negligible effects | 128 µM (≈ 56.4 µg/mL) | 128 µM (≈ 56.4 µg/mL) |  |  |  |  |  |  |  |  |  | 
2 | COc1ccc2cc3[n+](cc2c1OC)CCc1cc2c(cc1-3)OCO2 [Compound 82, Berberine] |  |  |  |  |  | robust inhibitory activity against FtsZ polymerization | varying degrees of inhibition on FtsZ polymerization |  |  | 64 µM | substantially mitigated | exhibited vitality, maintained a healthy appetite | 8 µM | varying degrees of elongation | 64 µM | 4 µM |  |  | 
4 | CC(C)CNc1ccnc(NCc2csc(-c3ccccc3)n2)n1 [Compound 60, KHS 101] |  | 5.62 ± 0.12 µM |  |  |  | apparent inhibitory tendencies towards FtsZ polymerization | varying degrees of inhibition on FtsZ polymerization |  |  | 64 µM (≈ 21.7 µg/mL) |  |  | 8 µM (≈ 2.72 µg/mL) |  | 16 µM (≈ 5.43 µg/mL) | 8 µM (≈ 2.72 µg/mL) | 89% | 90% | 
5 | CC[C@]1(O)C[C@H]2CN(CCc3c([nH]c4ccccc34)[C@@](C(=O)OC)(c3cc4c(cc3OC)N(C=O)[C@H]3[C@@](O)(C(=O)OC)[C@H](OC(C)=O)[C@]5(CC)C=CCN6CC[C@]43[C@@H]65)C2)C1 [Compound 6, Vincristine sulfate] |  |  |  |  |  |  | negligible effects |  |  | 16 µM |  |  | 32 µM |  | 64 µM | 8 µM |  |  | 
6 | CN(C)c1ccc2c(c1)Sc1cc(N(C)C)ccc1N2 [Compound 33, Leucomethylene blue mesylate] |  | 74.46 ± 0.25 µM |  |  |  | minimal impact on the dynamics of FtsZ polymerization | varying degrees of inhibition on FtsZ polymerization |  |  | 64 µM |  |  | 2 µM |  | 32 µM | 4 µM | 80% | 65% | 3 logs
7 | CN(C)c1ccc2nc3ccc(=[N+](C)C)cc-3sc2c1 [Compound 71, Methylene Blue] |  |  |  |  |  |  | negligible effects |  |  | 32 µM |  |  | 64 µM |  | 64 µM | 2 µM |  |  | 3 logs
